Measured values taken from US20230263907A1, “PREPARATION OF SOLID CYCLODEXTRIN COMPLEXES FOR OPHTHALMIC ACTIVE PHARMACEUTICAL INGREDIENT DELIVERY” (OCULIS SA, priority 2020, published 2023).
Values after ≈ are worked out from the molar mass of the structure shown. Marks after values point to notes of the source that are not given here.

Key:
[1] = Dissolution test of eye drop formulations in water; format: physicochemical; conditions: formulation AF1, 450 times dilution in water, maximum at about 10 minutes
Method: In order to keep high concentrations of dissolved kinase inhibitors in the aqueous tear fluid the dissolution of the kinase inhibitor must proceed very quickly upon media dilution. The test formulation was above DF3 and the reference formulation was AF1 comprising acrizanib (Table 4 below). A dissolution test was performed by direct adding of a formulation aliquot into defined volume of water under constant stirring speed. The formulation/water ratio (final dilution) selection was based on the quantification limit of the used HPLC method and on the acrizanib solubility. The final dilution of 450 times was selected. At certain time after adding the formulation to water a sample of about 1 ml was taken from a stirring media, filtered through 0.45 µm filter and transferred to an HPLC vial for analysis.

[2] = target: EGFR (Homo sapiens, UniProt P00533); conditions: vendor data; cited from earlier work
[3] = target: T1, VEGFR2 (Homo sapiens, UniProt P35968); experiment: VEGFR2 IC50 values obtained from Selleckchem, Tocris Bioscience and TargetMol; format: biochemical; conditions: ratio of vendor IC50 values
[4] = target: VEGFR2 (C-terminal fragment, amino acids D807-V1356) (Homo sapiens, UniProt P35968)
[5] = 7 days
[6] = tested on: VEGFR2; experiment: PamChip kinase activity profiling in retina tissue lysates; design: VEGFR2 inhibition, Retina: dose or concentration left out as unconfirmed; conditions: rabbit retina lysate
[7] = tested on: VEGFR2; experiment: PamChip kinase activity profiling in cornea tissue lysates; design: VEGFR2 inhibition, Cornea: dose or concentration left out as unconfirmed; conditions: rabbit cornea lysate
[8] = target: T2, EGFR (C-terminal fragment, amino acids H672-A1210) (Homo sapiens, UniProt P00533); experiment: PamChip tyrosine kinase peptide array assay, recombinant EGFR; format: biochemical
T2 construct: EGFR (C-terminal fragment, amino acids H672-A1210); purchased Proqinase (Freiburg Germany)

[9] = Solid and dissolved drug fraction and particle size of eye drop microsuspensions; format: physicochemical
[10] = Experimental aqueous solubility; format: physicochemical
Excerpt: Further improvement of the complexation efficacy is obtained by addition of EDTA and polymers like tyloxapol.

[11] = target: T1, VEGFR2; conditions: vendor data; cited from earlier work
[12] = cited from earlier work
[13] = Phase solubility screening of orantinib with gamma-cyclodextrin at pH 6; format: physicochemical; conditions: 22.5 °C, thermodynamic from solid
Method: Phase solubility screening with gamma-cyclodextrin at pH 6. […] The suspensions formed were autoclaved for 15 minutes at 121° C.

[14] = Stability of orantinib in an autoclave; format: physicochemical
Excerpt: Each vial was then split up into 2 vials. One vial of each set was autoclaved and all samples analyzed by HPLC.

[15] = cited from earlier work; for solubility in pure water: 25° C.
[16] = Solubility of axitinib free base with various acids and γ-cyclodextrin
[17] = γ-cyclodextrin eye drop formulations

EGFR, sequence (P00533 25-1210, species assumed): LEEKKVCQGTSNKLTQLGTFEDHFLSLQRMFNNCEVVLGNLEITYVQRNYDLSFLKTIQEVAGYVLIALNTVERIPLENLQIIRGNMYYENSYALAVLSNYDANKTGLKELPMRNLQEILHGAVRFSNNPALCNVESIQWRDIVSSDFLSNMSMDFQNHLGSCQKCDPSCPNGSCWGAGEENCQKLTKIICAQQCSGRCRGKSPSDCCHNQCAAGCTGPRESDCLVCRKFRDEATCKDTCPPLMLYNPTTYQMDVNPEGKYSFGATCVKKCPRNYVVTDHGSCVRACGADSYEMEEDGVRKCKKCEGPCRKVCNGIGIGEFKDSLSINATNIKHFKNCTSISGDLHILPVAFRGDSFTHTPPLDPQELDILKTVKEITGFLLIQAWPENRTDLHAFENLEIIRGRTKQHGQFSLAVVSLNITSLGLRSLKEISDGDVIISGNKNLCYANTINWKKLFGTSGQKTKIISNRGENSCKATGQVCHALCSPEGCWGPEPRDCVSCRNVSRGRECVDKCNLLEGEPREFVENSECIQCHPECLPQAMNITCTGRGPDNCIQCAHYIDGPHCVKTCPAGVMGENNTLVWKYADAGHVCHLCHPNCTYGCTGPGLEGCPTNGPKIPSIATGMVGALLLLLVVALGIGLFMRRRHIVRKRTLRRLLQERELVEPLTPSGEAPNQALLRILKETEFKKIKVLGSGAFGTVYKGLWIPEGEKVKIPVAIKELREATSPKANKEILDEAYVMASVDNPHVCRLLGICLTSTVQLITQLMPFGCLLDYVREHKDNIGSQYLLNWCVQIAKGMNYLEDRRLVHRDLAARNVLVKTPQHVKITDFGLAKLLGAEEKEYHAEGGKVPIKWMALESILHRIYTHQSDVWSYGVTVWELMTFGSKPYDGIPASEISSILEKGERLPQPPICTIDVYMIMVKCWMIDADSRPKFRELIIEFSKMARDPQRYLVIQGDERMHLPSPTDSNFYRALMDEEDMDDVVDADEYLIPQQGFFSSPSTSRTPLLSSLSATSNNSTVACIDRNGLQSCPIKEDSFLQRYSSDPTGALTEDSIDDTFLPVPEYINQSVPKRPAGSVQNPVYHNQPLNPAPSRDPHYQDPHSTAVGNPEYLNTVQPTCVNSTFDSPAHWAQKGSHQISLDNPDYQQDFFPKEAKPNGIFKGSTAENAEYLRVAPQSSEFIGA
T1 sequence (P35968 20-1356, species assumed): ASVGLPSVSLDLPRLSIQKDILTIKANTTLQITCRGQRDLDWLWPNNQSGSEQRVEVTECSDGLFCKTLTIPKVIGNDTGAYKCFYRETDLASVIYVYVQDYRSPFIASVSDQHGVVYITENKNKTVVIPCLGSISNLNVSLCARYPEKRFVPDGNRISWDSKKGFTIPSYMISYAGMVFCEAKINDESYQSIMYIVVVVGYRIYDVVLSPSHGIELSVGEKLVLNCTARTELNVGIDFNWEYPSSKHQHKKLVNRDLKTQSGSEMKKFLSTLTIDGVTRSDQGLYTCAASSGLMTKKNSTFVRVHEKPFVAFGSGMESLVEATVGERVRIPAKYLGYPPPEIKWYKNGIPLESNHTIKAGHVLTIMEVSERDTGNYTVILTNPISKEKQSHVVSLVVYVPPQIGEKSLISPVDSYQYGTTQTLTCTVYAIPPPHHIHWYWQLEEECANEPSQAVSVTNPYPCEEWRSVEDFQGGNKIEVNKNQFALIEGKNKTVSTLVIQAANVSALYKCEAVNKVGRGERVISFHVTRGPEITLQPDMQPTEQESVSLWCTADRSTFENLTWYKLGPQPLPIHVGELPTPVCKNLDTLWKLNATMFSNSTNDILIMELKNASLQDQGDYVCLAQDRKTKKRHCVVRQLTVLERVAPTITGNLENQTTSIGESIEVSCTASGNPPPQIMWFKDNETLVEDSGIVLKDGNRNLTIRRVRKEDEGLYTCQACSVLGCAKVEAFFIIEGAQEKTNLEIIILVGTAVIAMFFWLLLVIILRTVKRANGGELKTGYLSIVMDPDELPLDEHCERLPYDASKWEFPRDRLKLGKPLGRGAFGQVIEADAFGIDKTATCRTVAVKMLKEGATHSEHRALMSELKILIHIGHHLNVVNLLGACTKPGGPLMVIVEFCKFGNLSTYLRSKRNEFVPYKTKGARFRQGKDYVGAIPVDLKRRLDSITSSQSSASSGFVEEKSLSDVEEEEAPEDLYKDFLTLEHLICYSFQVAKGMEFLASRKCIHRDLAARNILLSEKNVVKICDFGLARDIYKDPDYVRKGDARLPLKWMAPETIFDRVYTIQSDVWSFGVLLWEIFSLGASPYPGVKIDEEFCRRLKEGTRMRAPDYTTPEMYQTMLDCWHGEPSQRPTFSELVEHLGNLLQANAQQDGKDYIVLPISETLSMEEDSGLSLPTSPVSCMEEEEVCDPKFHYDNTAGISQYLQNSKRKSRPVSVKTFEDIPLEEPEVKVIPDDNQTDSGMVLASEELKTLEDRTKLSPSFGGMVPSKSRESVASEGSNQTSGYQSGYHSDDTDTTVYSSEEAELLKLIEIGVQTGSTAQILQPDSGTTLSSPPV
T2 sequence (P00533 672-1210): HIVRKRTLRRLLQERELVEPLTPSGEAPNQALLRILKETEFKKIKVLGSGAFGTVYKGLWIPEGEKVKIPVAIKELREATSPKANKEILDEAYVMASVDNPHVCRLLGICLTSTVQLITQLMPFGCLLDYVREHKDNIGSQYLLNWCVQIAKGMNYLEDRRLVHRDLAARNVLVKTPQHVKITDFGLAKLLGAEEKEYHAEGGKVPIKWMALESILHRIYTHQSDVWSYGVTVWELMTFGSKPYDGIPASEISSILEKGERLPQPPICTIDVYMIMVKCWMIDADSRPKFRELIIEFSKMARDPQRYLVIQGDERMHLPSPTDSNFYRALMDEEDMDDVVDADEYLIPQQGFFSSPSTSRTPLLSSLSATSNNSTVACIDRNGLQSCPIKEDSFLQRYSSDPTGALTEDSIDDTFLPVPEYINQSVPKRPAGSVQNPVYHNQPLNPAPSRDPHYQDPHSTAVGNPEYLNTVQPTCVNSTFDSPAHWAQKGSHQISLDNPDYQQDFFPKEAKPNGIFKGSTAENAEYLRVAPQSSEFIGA
VEGFR2 (C-terminal fragment, amino acids D807-V1356), sequence (P35968 807-1356): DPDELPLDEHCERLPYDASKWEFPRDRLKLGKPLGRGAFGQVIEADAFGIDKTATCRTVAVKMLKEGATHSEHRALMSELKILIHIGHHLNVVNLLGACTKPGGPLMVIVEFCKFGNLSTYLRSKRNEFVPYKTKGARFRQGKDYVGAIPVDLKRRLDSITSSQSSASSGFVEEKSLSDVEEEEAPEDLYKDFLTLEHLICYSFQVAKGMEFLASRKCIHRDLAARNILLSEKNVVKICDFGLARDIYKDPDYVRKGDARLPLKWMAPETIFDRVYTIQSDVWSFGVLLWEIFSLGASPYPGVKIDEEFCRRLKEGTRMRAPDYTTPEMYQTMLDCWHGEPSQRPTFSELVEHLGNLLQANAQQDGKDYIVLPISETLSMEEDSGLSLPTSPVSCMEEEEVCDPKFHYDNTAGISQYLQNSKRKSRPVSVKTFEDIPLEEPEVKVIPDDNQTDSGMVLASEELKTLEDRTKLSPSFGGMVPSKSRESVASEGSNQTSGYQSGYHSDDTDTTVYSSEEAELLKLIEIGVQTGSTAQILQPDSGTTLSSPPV

**Q.** Which results are given for `CNCc1cc(Oc2ccc3c(ccn3C(=O)Nc3cc(C(F)(F)F)n(C)n3)c2)ncn1` [Acrizanib]?
**A.** fraction of drug dissolved, maximum [1]: about 7.5%; IC50 [2]: 1 µM

**Q.** Which IC50 [2] does the source give for `O=C(Nc1cc(Oc2cc(F)c(NC(=O)C3(C(=O)Nc4ccc(F)cc4)CC3)cc2F)ccn1)C1CC1` [Altiratinib] here?
**A.** Its IC50 is 3.3 µM.

**Q.** With `COc1cc2c(Oc3ccc4[nH]c(C)cc4c3F)ccnc2cc1OCC1(N)CC1` [Anlotinib] as the compound, how does the EGFR/VEGFR2 ratio [3] read?
**A.** Its EGFR/VEGFR2 ratio is 10,000.

**Q.** And the IC50 [2]?
**A.** The IC50 was 2 µM.

**Q.** For `CNC(=O)c1ccccc1Sc1ccc2c(/C=C/c3ccccn3)n[nH]c2c1` [Axitinib], which “VEGFR inhibition in the recombinant assays” value [4] is on record?
**A.** Its value is “potent inhibitors for VEGFR”.

**Q.** What about the “CE (complexation efficacy)” value [5] of the same compound?
**A.** The value was 0.0002.

**Q.** For `O=C(Nc1cccc(C(F)(F)F)c1)c1cccc2cc(Oc3cc(CO)ncn3)ccc12` [BFH772], which EGFR/VEGFR2 ratio [3] is on record?
**A.** Its EGFR/VEGFR2 ratio is 3333.

**Q.** What about the IC50 [2] of the same compound?
**A.** The IC50 was 10 µM.

**Q.** What does the source list for `COc1cc2nccc(Oc3ccc(NC(=O)C4(C(=O)Nc5ccc(F)cc5)CC4)cc3)c2cc1OC` [Cabozantinib]?
**A.** VEGFR2 inhibition, Retina [6]: 74.82%; VEGFR2 inhibition, Cornea [7]: 90.52%; EGFR inhibition in the recombinant assays [8]: do not inhibit EGFR

**Q.** For `COc1cc2c(Oc3ccc4[nH]c(C)cc4c3F)ncnc2cc1OCCCN1CCCC1` [Cediranib], which “diameter of dissolved drug/γ-cyclodextrin complex nanoparticles” value [9, 17] is on record?
**A.** The value was “below 200 nm”.

**Q.** What about the “diameter of solid drug/γ-cyclodextrin complex microparticles” value [9, 17] of the same compound?
**A.** The value was “less than 10 µm”.

**Q.** And the “fraction of drug dissolved (free drug, complexes or complex nanoparticles)” value [9, 17]?
**A.** The value was “about 13%”.

**Q.** What about the “fraction of drug in solid drug/γ-cyclodextrin complex microparticles” value ([9]; γ-cyclodextrin eye drop formulations, from concentration before and after filtration) of the same compound?
**A.** Its value is “About 87%”.

**Q.** What about the “CE (complexation efficacy)” value [5] of the same compound?
**A.** Its value is 0.0578.

**Q.** With `CC(O)C(=O)O.CC(O)C(=O)O.CN1CCN(c2ccc3nc(-c4c(N)c5c(F)cccc5[nH]c4=O)[nH]c3c2)CC1` [Dovitinib dilactate] as the compound, how does the “increase of drug that could be dissolved and suspended” value ([9]; lactate salt with EDTA and surface active polymers, versus free base) read?
**A.** Its value is ~10 fold.

**Q.** And the S in water ([10]; pH 6.5)?
**A.** Its S in water is 0.3 ^b mg/mL.

**Q.** Which EGFR/VEGFR2 ratio [3] does the source give for `CNC(=O)c1c(C)oc2cc(Oc3ncnc4cc(OC)c(OC)cc34)ccc12` [Fruquintinib] here?
**A.** The EGFR/VEGFR2 ratio was 857.

**Q.** What about the IC50 [2] of the same compound?
**A.** Its IC50 is 30 µM.

**Q.** Which results are given for `COc1cc2nccc(Oc3ccc(NC(=O)Nc4ccc(F)cc4F)c(F)c3)c2cc1OC` [Ki8751]?
**A.** IC50 [11]: 0.004 µM; EGFR/VEGFR2 ratio [3]: 2500; IC50 [2]: 10 µM

**Q.** Which results are given for `O=C(O)CC(O)C(=O)O` (centres unmarked) [Malic]?
**A.** pKa (first or only value) [12]: 3.51; pKa (second value) [12]: 5.03

**Q.** With `CC1(C)CNc2cc(NC(=O)c3cccnc3NCc3ccncc3)ccc21` [Motesanib] as the compound, how does the “CE (complexation efficacy)” value [5] read?
**A.** The value was 0.0052.

**Q.** For `COC(=O)c1ccc2c(c1)NC(=O)/C2=C(\Nc1ccc(N(C)C(=O)CN2CCN(C)CC2)cc1)c1ccccc1` [Nintedanib], which “VEGFR2 inhibition, Retina” value [6] is on record?
**A.** Its value is 94.33%.

**Q.** What about the “VEGFR2 potency ranking in retina” value [6] of the same compound?
**A.** Its value is “most potent VEGFR2 inhibitor”.

**Q.** And the “VEGFR2 inhibition, Cornea” value [7]?
**A.** The value was 95.92%.

**Q.** What about the “VEGFR2 potency ranking in cornea” value [7] of the same compound?
**A.** Its value is “most potent VEGFR2 inhibitor”.

**Q.** Which results are given for `O=C(Nc1ccc(OC(F)(F)F)cc1)c1sccc1NCc1ccnc2ccccc12` [OSI-930]?
**A.** EGFR/VEGFR2 ratio [3]: 1000; IC50 [2]: 10 µM

**Q.** Which results are given for `Cc1[nH]c(/C=C2\C(=O)Nc3ccccc32)c(C)c1CCC(=O)O` [Orantinib]?
**A.** solubility at 4 h ([13]; water with 0 % (w/v) γ-cyclodextrin, water, 0 % (w/v) γCD, pH 6.3): 4 µg/mL (≈ 12.9 µM); solubility at 4 h ([13]; water with 5 % (w/v) γ-cyclodextrin, aqueous with cosolvent or surfactant or cyclodextrin, 5 % (w/v) γCD, pH 6.1): 14 µg/mL (≈ 45.1 µM); solubility at 4 h ([13]; water with 10 % (w/v) γ-cyclodextrin, aqueous with cosolvent or surfactant or cyclodextrin, 10 % (w/v) γCD, pH 6.2): 17 µg/mL (≈ 54.8 µM); solubility at 4 h ([13]; water with 15 % (w/v) γ-cyclodextrin, aqueous with cosolvent or surfactant or cyclodextrin, 15 % (w/v) γCD, pH 6.0): 12 µg/mL (≈ 38.7 µM); concentration before autoclave ([14]; sample 1-29, MQ water with NaOH, pH 7.4, filtered 0.45 micrometer): 60 µq/ml; concentration after autoclave ([14]; sample 1-29, pH 7.4): 64 µg/mL; concentration before autoclave ([14]; sample 2-29, MQ water with NaOH, pH 7.6, filtered 0.45 micrometer): 182 µq/ml; concentration after autoclave ([14]; sample 2-29, pH 7.6): 176 µg/mL; concentration before autoclave ([14]; sample 3-29, MQ water with NaOH, pH 7.8, filtered 0.45 micrometer): 321 µq/ml; concentration after autoclave ([14]; sample 3-29, pH 7.8): 316 µg/mL

**Q.** For `Cc1ccc(Nc2nccc(N(C)c3ccc4c(C)n(C)nc4c3)n2)cc1S(N)(=O)=O` [Pazopanib], which “CE (complexation efficacy)” value [5] is on record?
**A.** The value was 0.00002.

**Q.** For `CNC(=O)c1cc(Oc2ccc(NC(=O)Nc3ccc(Cl)c(C(F)(F)F)c3)c(F)c2)ccn1` [Regorafenib], which IC50 [2] is on record?
**A.** The IC50 was 1 µM.

**Q.** What about the “CE (complexation efficacy)” value [5] of the same compound?
**A.** Its value is 0.00002.

**Q.** With `COCCNCc1ccc(-c2cc3nccc(Oc4ccc(NC(=O)C5(C(=O)Nc6ccc(F)cc6)CC5)cc4F)c3s2)nc1` [Sitravatinib] as the compound, how does the IC50 [2] read?
**A.** Its IC50 is 5 µM.

**Q.** Which results are given for `Cc1cc(F)c(Nc2ncnc3cc(OCc4ccccc4)ccc23)cc1O` [ZM 323881, 5-((7-Benzyloxyquinazolin-4-yl)amino)-4-fluoro-2-methylphenol]?
**A.** EGFR/VEGFR2 ratio [3]: 25,000; IC50 [2]: 50 µM

**Q.** With `OC[C@H]1O[C@@H]2O[C@H]3[C@H](O)[C@@H](O)[C@@H](O[C@H]4[C@H](O)[C@@H](O)[C@@H](O[C@H]5[C@H](O)[C@@H](O)[C@@H](O[C@H]6[C@H](O)[C@@H](O)[C@@H](O[C@H]7[C@H](O)[C@@H](O)[C@@H](O[C@H]1[C@H](O)[C@H]2O)O[C@@H]7CO)O[C@@H]6CO)O[C@@H]5CO)O[C@@H]4CO)O[C@@H]3CO` [α-cyclodextrin] as the compound, how does the “solubility in pure water” value [15] read?
**A.** Its value is 129500 ± 700 µg/mL (≈ 133000 µM).

**Q.** Which γCD in solution ([16]; 10 mg/ml Axi + 50 mg/ml γCD + Acetic acid (1:1 molar), pH 3.5) does the source give for `OC[C@H]1O[C@@H]2O[C@H]3[C@H](O)[C@@H](O)[C@@H](O[C@H]4[C@H](O)[C@@H](O)[C@@H](O[C@H]5[C@H](O)[C@@H](O)[C@@H](O[C@H]6[C@H](O)[C@@H](O)[C@@H](O[C@H]7[C@H](O)[C@@H](O)[C@@H](O[C@H]8[C@H](O)[C@@H](O)[C@@H](O[C@H]9[C@H](O)[C@@H](O)[C@@H](O[C@H]1[C@H](O)[C@H]2O)O[C@@H]9CO)O[C@@H]8CO)O[C@@H]7CO)O[C@@H]6CO)O[C@@H]5CO)O[C@@H]4CO)O[C@@H]3CO` [γ-cyclodextrin] here?
**A.** Its γCD in solution is 24 mg/mL.

**Q.** What about the γCD in solution ([16]; 10 mg/ml Axi + 50 mg/ml γCD + Ascorbic acid (1:1 molar), pH 3.1) of the same compound?
**A.** The γCD in solution was 27 mg/mL.

**Q.** And the γCD in solution ([16]; 10 mg/ml Axi + 50 mg/ml γCD + Hydrochloric acid (1:1 molar), pH 3.2)?
**A.** Its γCD in solution is 21 mg/mL.

**Q.** And the γCD in solution ([16]; 10 mg/ml Axi + 50 mg/ml γCD + Lactic acid (1:1 molar), pH 2.8)?
**A.** Its γCD in solution is 24 mg/mL.

**Q.** And the γCD in solution ([16]; 10 mg/ml Axi + 50 mg/ml γCD + Maleic acid (1:1 molar), pH 2.3)?
**A.** Its γCD in solution is 25 mg/mL.

**Q.** And the γCD in solution ([16]; 10 mg/ml Axi + 50 mg/ml γCD + Malic acid (1:1 molar), pH 3.0)?
**A.** The γCD in solution was 24 mg/mL.

**Q.** What about the γCD in solution ([16]; 10 mg/ml Axi + 50 mg/ml γCD + Tartaric acid (1:1 molar), pH 2.7) of the same compound?
**A.** The γCD in solution was 22 mg/mL.

**Q.** What about the γCD in solution ([16]; 10 mg/ml Axi + 50 mg/ml γCD, no acid, pH 9.1) of the same compound?
**A.** Its γCD in solution is 22 mg/mL.

**Q.** And the “solubility in pure water” value [15]?
**A.** Its value is 249200 ± 200 µg/mL (≈ 192000 µM).

**Q.** And the “solubility in aqueous 3% (w/v) γ-cyclodextrin suspension saturated with hydrocortisone” value [15]?
**A.** Its value is 13000 µg/mL.

**Q.** And the “solubility in pure water at room temperature” value [15]?
**A.** The value was “about 250 mg/ml”.

**Q.** For Cediranib maleate, which “solubility compared with the free base” value [10] is on record?
**A.** The value was “significant greater solubility than the free base”.
